{"source": "ChEMBL document CHEMBL5233266", "about": "“β-Carboline as a Privileged Scaffold for Multitarget Strategies in Alzheimer's Disease Therapy” (J Med Chem, 2021)", "key": {"[1]": {"biological_target": "GABA-A receptor; anion channel", "assay": "Displacement of [3H]flunitrazepam from GABAA (unknown origin ) receptor by radioligand binding assay", "format": "protein-complex assay, Homo sapiens"}, "[2]": {"biological_target": "T1, Gamma-aminobutyric acid receptor subunit alpha-1 (Homo sapiens, UniProt P14867)", "T1 sequence (P14867 whole entry)": "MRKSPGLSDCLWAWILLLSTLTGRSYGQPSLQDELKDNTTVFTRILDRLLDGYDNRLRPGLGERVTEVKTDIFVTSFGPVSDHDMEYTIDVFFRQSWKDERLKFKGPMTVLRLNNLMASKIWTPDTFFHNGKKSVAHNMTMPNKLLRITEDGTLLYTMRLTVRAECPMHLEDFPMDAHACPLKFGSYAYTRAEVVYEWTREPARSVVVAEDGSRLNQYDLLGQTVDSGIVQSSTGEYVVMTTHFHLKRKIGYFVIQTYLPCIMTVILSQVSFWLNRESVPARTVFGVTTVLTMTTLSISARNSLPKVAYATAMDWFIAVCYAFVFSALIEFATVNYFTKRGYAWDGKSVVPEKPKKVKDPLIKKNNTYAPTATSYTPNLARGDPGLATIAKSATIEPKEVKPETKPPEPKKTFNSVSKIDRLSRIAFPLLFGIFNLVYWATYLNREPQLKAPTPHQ", "assay": "Binding affinity to human recombinant GABAA alpha1 receptor assessed as inhibition constant incubated for 1 hrs by liquid scintillation counting analysis"}, "[3]": {"biological_target": "T2, Gamma-aminobutyric acid receptor subunit alpha-2 (Homo sapiens, UniProt P47869)", "T2 sequence (P47869 whole entry)": "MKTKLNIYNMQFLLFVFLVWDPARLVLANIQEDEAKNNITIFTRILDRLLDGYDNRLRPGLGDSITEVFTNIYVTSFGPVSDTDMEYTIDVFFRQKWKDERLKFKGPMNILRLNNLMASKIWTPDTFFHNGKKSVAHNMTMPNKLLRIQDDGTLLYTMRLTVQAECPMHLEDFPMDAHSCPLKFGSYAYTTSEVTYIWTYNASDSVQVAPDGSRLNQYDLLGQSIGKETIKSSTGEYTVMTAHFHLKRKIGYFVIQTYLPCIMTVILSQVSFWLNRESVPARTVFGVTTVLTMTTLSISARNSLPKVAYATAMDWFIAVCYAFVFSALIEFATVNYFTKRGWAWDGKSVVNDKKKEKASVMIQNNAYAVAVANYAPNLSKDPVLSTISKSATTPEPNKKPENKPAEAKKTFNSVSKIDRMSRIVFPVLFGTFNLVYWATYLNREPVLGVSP", "assay": "Binding affinity to human recombinant GABAA alpha2 receptor assessed as inhibition constant incubated for 1 hrs by liquid scintillation counting analysis"}, "[4]": {"biological_target": "T3, Gamma-aminobutyric acid receptor subunit alpha-3 (Homo sapiens, UniProt P34903)", "T3 sequence (P34903 whole entry)": "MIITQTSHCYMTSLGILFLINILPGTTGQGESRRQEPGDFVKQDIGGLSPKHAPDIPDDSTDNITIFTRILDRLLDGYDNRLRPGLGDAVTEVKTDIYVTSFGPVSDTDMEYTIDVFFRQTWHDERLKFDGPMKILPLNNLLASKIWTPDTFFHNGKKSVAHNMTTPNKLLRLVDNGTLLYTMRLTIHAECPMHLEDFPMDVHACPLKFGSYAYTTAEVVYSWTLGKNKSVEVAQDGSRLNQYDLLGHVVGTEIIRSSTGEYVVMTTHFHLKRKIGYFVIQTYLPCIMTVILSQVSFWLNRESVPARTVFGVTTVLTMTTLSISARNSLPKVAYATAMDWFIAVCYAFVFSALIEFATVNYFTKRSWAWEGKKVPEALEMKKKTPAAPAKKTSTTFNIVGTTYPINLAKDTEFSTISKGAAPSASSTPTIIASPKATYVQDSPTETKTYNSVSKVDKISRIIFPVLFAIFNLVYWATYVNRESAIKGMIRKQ", "assay": "Binding affinity to human recombinant GABAA alpha3 receptor assessed as inhibition constant incubated for 1 hrs by liquid scintillation counting analysis"}, "[5]": {"biological_target": "Gamma-aminobutyric acid receptor subunit alpha-4 (Homo sapiens, UniProt P48169)", "sequence (P48169 whole entry)": "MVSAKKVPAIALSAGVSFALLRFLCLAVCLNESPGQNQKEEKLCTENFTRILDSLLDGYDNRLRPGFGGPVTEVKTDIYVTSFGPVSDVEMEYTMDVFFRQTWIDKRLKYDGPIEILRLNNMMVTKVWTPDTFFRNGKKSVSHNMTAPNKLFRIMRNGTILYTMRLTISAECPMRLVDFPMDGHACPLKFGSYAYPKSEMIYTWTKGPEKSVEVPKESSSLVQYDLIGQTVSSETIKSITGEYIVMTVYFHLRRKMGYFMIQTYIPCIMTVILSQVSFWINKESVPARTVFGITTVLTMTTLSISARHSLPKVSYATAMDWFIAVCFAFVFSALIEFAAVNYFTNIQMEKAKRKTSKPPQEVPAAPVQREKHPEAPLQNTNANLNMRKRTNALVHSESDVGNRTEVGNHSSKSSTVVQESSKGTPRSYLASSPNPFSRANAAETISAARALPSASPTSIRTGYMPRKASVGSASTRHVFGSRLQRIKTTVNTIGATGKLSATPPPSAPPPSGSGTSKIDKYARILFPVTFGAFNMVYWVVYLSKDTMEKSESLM", "assay": "Binding affinity to human recombinant GABAA alpha4 receptor assessed as inhibition constant incubated for 1 hrs by liquid scintillation counting analysis"}, "[6]": {"biological_target": "T4, Gamma-aminobutyric acid receptor subunit alpha-5 (Homo sapiens, UniProt P31644)", "T4 sequence (P31644 whole entry)": "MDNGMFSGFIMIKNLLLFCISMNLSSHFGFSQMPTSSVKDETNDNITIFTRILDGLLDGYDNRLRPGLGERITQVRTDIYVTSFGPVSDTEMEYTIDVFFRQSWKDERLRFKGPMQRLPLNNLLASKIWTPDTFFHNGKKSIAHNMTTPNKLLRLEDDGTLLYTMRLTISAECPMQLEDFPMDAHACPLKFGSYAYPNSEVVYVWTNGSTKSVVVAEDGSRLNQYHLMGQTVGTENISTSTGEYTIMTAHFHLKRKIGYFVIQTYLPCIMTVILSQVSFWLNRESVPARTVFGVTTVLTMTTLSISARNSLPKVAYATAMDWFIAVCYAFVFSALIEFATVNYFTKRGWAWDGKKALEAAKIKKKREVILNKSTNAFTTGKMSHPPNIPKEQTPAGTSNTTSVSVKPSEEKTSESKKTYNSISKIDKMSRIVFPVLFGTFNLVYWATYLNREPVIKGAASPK", "assay": "Binding affinity to human recombinant GABAA alpha5 receptor assessed as inhibition constant incubated for 1 hrs by liquid scintillation counting analysis"}, "[7]": {"biological_target": "Gamma-aminobutyric acid receptor subunit alpha-6 (Homo sapiens, UniProt Q16445)", "sequence (Q16445 whole entry)": "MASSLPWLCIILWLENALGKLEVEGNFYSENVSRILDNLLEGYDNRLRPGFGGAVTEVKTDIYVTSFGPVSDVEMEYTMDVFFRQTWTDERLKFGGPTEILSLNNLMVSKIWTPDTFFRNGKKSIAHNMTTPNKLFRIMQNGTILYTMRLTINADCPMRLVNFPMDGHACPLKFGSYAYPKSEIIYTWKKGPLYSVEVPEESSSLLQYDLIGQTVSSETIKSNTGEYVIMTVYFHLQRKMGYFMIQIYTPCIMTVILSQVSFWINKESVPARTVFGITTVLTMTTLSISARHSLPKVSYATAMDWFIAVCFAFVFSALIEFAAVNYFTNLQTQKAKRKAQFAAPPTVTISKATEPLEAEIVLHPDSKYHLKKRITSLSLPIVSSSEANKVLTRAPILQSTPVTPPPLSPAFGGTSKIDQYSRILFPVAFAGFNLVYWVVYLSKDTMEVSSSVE", "assay": "Binding affinity to human recombinant GABAA alpha6 receptor assessed as inhibition constant incubated for 1 hrs by liquid scintillation counting analysis"}, "Acetylcholinesterase [8]": {"biological_target": "T5, Acetylcholinesterase (Homo sapiens, UniProt P22303)", "T5 sequence (P22303 whole entry)": "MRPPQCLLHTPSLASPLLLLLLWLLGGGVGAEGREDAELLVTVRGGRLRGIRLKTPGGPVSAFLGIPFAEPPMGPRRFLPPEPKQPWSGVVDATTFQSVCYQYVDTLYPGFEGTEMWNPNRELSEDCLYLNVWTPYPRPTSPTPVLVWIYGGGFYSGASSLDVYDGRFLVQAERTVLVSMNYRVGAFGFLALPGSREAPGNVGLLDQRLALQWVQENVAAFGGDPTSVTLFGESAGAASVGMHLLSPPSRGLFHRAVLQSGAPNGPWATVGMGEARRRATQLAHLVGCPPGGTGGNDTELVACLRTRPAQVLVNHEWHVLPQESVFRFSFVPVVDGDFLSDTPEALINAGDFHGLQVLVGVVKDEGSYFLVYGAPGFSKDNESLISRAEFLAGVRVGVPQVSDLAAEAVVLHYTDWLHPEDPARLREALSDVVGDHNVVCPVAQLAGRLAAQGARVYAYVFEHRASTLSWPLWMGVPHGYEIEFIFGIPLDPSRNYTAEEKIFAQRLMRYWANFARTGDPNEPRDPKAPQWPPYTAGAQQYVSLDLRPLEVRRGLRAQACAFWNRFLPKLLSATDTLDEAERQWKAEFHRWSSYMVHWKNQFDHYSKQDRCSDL", "assay": "Inhibition of AChE (unknown origin)"}, "Cholinesterase": {"biological_target": "Cholinesterase (Homo sapiens, UniProt P06276)", "sequence (P06276 whole entry)": "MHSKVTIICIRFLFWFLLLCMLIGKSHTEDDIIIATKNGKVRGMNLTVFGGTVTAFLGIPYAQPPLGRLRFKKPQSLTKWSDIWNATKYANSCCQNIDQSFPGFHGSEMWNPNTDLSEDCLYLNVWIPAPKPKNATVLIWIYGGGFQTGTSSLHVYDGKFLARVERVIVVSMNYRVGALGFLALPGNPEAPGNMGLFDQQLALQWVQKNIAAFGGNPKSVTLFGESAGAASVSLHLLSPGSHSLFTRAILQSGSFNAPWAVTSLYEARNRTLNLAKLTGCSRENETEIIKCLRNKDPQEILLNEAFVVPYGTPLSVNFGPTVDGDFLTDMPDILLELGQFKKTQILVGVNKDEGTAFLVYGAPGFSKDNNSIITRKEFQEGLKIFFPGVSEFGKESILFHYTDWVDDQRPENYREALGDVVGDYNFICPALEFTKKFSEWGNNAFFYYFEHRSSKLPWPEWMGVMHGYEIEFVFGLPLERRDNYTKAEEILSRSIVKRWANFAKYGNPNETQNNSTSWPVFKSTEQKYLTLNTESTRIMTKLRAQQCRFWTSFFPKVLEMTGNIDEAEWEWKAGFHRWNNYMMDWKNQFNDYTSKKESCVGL", "assay": "Inhibition of BuChE (unknown origin)"}, "Acetylcholinesterase [9]": {"biological_target": "T5, Acetylcholinesterase", "assay": "Inhibition of AChE (unknown origin) by Ellman's method"}, "[10]": {"biological_target": "cGMP-specific 3',5'-cyclic phosphodiesterase (Homo sapiens, UniProt O76074)", "assay": "Binding affinity to PDE5 (unknown origin) assessed as inhibition constant"}, "[11]": {"biological_target": "5-hydroxytryptamine receptor 5A (Homo sapiens, UniProt P47898)", "sequence (P47898 whole entry)": "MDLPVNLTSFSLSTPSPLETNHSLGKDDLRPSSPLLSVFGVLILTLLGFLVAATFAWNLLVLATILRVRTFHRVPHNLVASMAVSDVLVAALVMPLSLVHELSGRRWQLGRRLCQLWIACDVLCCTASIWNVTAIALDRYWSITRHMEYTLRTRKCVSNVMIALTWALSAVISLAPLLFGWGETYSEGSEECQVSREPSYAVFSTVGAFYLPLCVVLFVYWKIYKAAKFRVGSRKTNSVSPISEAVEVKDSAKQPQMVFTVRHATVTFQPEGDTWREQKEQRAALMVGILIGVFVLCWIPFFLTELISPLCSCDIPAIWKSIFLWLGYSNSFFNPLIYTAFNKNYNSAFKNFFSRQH", "assay": "Binding affinity to 5-HT5AR (unknown origin) assessed as inhibition constant"}, "[12]": {"biological_target": "5-hydroxytryptamine receptor 2B (Homo sapiens, UniProt P41595)", "sequence (P41595 whole entry)": "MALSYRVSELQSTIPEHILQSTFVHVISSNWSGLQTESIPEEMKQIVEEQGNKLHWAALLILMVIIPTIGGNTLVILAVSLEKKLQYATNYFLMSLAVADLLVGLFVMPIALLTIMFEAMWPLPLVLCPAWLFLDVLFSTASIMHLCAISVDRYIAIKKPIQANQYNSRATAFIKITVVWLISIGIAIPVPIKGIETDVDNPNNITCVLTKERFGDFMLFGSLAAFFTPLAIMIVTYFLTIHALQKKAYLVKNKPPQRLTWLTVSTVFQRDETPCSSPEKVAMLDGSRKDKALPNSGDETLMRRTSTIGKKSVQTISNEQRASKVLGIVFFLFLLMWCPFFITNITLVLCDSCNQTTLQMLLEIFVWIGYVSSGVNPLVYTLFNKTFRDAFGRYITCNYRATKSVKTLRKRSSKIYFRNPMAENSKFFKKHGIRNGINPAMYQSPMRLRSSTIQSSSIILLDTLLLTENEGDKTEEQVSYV", "assay": "Binding affinity to 5-HT2BR (unknown origin) assessed as inhibition constant"}, "[13]": {"biological_target": "T6, 5-hydroxytryptamine receptor 2C (Homo sapiens, UniProt P28335)", "T6 sequence (P28335 whole entry)": "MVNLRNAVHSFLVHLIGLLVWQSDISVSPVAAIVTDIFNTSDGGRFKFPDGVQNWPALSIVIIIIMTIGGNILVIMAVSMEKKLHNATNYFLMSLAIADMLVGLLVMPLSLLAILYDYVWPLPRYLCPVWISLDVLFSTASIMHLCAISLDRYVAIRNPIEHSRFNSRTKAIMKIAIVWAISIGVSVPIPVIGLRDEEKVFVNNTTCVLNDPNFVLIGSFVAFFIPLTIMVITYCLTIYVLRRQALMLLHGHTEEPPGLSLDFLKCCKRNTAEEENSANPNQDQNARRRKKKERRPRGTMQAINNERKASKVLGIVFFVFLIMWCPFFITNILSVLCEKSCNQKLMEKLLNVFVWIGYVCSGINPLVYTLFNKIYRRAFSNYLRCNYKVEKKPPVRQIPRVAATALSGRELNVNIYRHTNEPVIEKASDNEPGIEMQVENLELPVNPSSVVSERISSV", "assay": "Binding affinity to 5-HT2C (unknown origin) assessed as inhibition constant"}, "[14]": {"biological_target": "Dual specificity tyrosine-phosphorylation-regulated kinase 1A (Homo sapiens, UniProt Q13627)", "assay": "Inhibition of DYRK1A (unknown origin)"}, "[15]": {"biological_target": "Glutamate receptor ionotropic, NMDA 2B (Homo sapiens, UniProt Q05586+Q13224)", "sequence (Q13224 whole entry, one chain of several)": "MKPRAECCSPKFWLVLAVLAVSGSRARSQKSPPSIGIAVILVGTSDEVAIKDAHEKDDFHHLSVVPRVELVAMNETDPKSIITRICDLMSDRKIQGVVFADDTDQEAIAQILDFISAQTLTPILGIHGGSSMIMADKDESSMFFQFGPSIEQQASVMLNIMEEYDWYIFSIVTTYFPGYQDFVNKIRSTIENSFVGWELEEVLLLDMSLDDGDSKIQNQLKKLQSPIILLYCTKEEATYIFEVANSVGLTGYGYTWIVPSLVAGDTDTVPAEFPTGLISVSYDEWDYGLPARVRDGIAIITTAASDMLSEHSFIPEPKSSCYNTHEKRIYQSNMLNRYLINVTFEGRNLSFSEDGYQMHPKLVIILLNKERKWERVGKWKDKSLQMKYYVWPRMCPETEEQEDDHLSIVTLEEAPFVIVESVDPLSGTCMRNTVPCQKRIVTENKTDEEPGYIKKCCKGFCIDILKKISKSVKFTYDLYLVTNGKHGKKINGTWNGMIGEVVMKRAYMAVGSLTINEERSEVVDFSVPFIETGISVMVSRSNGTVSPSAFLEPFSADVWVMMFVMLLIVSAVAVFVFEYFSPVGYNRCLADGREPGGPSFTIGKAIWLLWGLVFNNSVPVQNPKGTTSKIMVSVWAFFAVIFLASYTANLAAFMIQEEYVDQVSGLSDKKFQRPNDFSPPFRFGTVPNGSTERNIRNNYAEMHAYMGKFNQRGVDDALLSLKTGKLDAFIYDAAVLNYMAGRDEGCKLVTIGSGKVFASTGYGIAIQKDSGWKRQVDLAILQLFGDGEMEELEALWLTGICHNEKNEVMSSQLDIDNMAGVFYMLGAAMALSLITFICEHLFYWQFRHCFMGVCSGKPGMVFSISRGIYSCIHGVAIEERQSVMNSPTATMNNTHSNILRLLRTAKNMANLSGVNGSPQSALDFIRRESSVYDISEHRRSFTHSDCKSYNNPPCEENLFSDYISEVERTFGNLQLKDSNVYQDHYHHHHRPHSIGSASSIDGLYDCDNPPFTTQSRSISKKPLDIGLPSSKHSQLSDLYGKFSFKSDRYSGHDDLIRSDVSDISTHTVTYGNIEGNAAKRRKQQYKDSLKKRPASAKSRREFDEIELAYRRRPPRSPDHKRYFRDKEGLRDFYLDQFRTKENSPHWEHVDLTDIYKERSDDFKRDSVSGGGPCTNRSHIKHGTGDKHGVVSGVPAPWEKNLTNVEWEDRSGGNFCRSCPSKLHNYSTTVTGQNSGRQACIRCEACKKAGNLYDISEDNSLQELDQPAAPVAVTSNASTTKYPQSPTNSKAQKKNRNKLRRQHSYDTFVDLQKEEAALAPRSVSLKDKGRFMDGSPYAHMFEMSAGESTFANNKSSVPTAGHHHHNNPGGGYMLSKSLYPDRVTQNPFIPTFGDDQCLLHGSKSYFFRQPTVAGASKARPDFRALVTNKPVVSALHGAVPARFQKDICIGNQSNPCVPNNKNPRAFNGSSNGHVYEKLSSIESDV", "assay": "Inhibition of NMDA receptor NR2B subunit (unknown origin)"}}}
{"smiles": "COC(=O)c1cc2c(cn1)[nH]c1ccccc12", "note": "[BETA-CCM]", "values": [{"measurement": "IC50", "setting": "[1]", "result": 1, "unit": "nM"}, {"measurement": "Ki", "setting": "[2]", "result": 2, "unit": "nM"}, {"measurement": "Ki", "setting": "[3]", "result": 7, "unit": "nM"}, {"measurement": "Ki", "setting": "[4]", "result": 72, "unit": "nM"}, {"measurement": "Ki", "setting": "[5]", "result": 1000, "unit": "nM"}, {"measurement": "Ki", "setting": "[6]", "result": 44, "unit": "nM"}, {"measurement": "Ki", "setting": "[7]", "result": 4400, "unit": "nM"}]}
{"smiles": "CCOC(=O)[n+]1ccc2c([nH]c3cc(OC)ccc32)c1C", "values": [{"measurement": "IC50", "setting": "Acetylcholinesterase [8]", "result": 250, "unit": "nM"}, {"measurement": "IC50", "setting": "Cholinesterase", "result": 1500, "unit": "nM"}, {"measurement": "IC50", "setting": "Acetylcholinesterase [9]", "result": 250, "unit": "nM"}]}
{"smiles": "C[n+]1ccc2c(c1)[nH]c1ccccc12", "note": "[NORMELINONINE F]", "values": [{"measurement": "IC50", "setting": "Cholinesterase", "result": 800, "unit": "nM"}, {"measurement": "IC50", "setting": "Acetylcholinesterase [9]", "result": 4100, "unit": "nM"}]}
{"smiles": "CC(C)CCn1c2c(c3c(O)cc(O)cc31)CCn1c-2nc2ccccc2c1=O", "values": [{"measurement": "Ki", "setting": "[10]", "result": 86, "unit": "nM"}]}
{"smiles": "c1ccc2cc(-c3nccc4c3[nH]c3ccccc34)ccc2c1", "values": [{"measurement": "Ki", "setting": "[11]", "result": 1500, "unit": "nM"}, {"measurement": "Ki", "setting": "[12]", "result": 1500, "unit": "nM"}]}
{"smiles": "COc1cccc2[nH]c3c(c12)CCN=C3C", "values": [{"measurement": "Ki", "setting": "[13]", "result": 65, "unit": "nM"}]}
{"smiles": "c1ccc2c(c1)[nH]c1cnccc12", "note": "[NORHARMANE]", "values": [{"measurement": "IC50", "setting": "Acetylcholinesterase [8]", "result": "> 40000", "unit": "nM"}, {"measurement": "IC50", "setting": "Cholinesterase", "result": "> 40000", "unit": "nM"}, {"measurement": "IC50", "setting": "[14]", "result": "> 1800", "unit": "nM"}, {"measurement": "IC50", "setting": "[1]", "result": 1600, "unit": "nM"}]}
{"smiles": "Oc1ccc2[nH]c3c(c2c1)CCN(CCCCc1ccccc1)C3", "values": [{"measurement": "IC50", "setting": "[15]", "result": 140, "unit": "nM"}]}
{"smiles": "c1ccc(C[C@@H]2NCCc3c2[nH]c2ccccc32)cc1", "values": [{"measurement": "IC50", "setting": "[15]", "result": 27000, "unit": "nM"}]}
{"smiles": "O=C1CCC[C@@H]2c3[nH]c4ccccc4c3C[C@@H](CO)N12", "values": [{"measurement": "IC50", "setting": "[15]", "result": 30000, "unit": "nM"}]}
{"smiles": "Oc1ccc2[nH]c3c(-c4c[nH]c5ccccc45)nccc3c2c1", "values": [{"measurement": "Ki", "setting": "[11]", "result": 170, "unit": "nM"}, {"measurement": "Ki", "setting": "[13]", "result": 170, "unit": "nM"}, {"measurement": "Ki", "setting": "[12]", "result": 170, "unit": "nM"}]}
{"smiles": "Oc1ccc2c3c([nH]c2c1)CN(CCCCc1ccccc1)CC3", "values": [{"measurement": "IC50", "setting": "[15]", "result": 50, "unit": "nM"}]}
{"smiles": "COc1ccc(-c2cnc(N3CC(=O)c4c([nH]c5ccccc45)C3c3ccc4c(c3)OCO4)nc2)cc1OC", "note": "(stereo not drawn)", "values": [{"measurement": "Ki", "setting": "[10]", "result": 9, "unit": "nM"}]}
{"smiles": "CC(C)(C)OC(=O)c1cc2c(cn1)[nH]c1ccccc12", "values": [{"measurement": "IC50", "setting": "[1]", "result": 1, "unit": "nM"}, {"measurement": "Ki", "setting": "[2]", "result": 0.7, "unit": "nM"}, {"measurement": "Ki", "setting": "[3]", "result": 15, "unit": "nM"}, {"measurement": "Ki", "setting": "[4]", "result": 19, "unit": "nM"}, {"measurement": "Ki", "setting": "[5]", "result": 1000, "unit": "nM"}, {"measurement": "Ki", "setting": "[6]", "result": 110, "unit": "nM"}, {"measurement": "Ki", "setting": "[7]", "result": "> 5000", "unit": "nM"}]}
{"smiles": "c1ccc2c(-c3nccc4c3[nH]c3ccccc34)c[nH]c2c1", "values": [{"measurement": "Ki", "setting": "[11]", "result": 170, "unit": "nM"}, {"measurement": "Ki", "setting": "[13]", "result": 170, "unit": "nM"}, {"measurement": "Ki", "setting": "[12]", "result": 170, "unit": "nM"}]}
